Experimental data: patent US20060018940A1, “Stabilized antimicrobial composition” (E. I. DU PONT DE NEMOURS AND COMPANY, priority 2004, published 2006)
“And” between values parts separate entries of the source, which are not always exact repeats. Identical values can stand only once. “Also recorded” adds a separate entry of the source. Like-named read-outs stand apart in the source and are kept apart here.

Assays:
Assay type in all cases: cell-based
[1] = system: Salmonella choleraesuis ATCC 10708
[2] = system: Pseudomonas aeruginosa ATCC 15442; test: Bacterial efficacy, suspension test (modified AOAC 965.13), plate count on TSA
[3] = system: Staphylococcus aureus ATCC 6538; test: as above
[4] = system: Aspergillus fumigatus ATCC 1098; test: Fungicidal activity (modified AOAC Method 955.17), surviving spores; details: for reduction of the fungal bioburden (words): within 15 minutes of treatment, amounts equivalent to those in the tablet solution
Experimental: This assay had several modifications from the published AOAC Fungicidal Activity of Disinfectants Protocol, Method 955.17. Aspergillus fumigatus ATCC 1098 was grown on Malt Extract Agar (available from Becton Dickinson, Billerica, Mass.) plates, and spores were harvested. Spores were stored in filter-sterilized Millipore water at −20° C. The spore preparation used for this experiment is detailed below. A freezer stock of A. fumigatus was defrosted and diluted to obtain an inoculum suspension for this experiment. The inoculum preparation was estimated to be approximately 5×10^6 conidia/mL. The following test solutions were prepared using filter sterilized Millipore water in steam-sterilized 4L bottles:
Water Control: (filter-sterilized water only), pH 6.28.
OXONE Control: 3.78 grams OXONE in 1 gallon (3.8L) sterile water, buffered to pH 4.43 using 0.98 g sodium bicarbonate and +5.25 g 10% H2SO4).
Chlorite Control: 0.26 grams of sodium chlorite in 1 gallon sterile water buffered to pH 4.55 (1.8 g 10% H2SO4).
Buffer Control: sodium bicarbonate, pH adjusted to 4.4.
Chlorine Dioxide: anthium dioxide (stabilized sodium chlorite available from IDI, North Kingston, R.I.) was acidified with HCl.
CLOROX control: 4.17% CLOROX bleach available from Clorox Company, Oakland, Calif. (v/v) in Millipore water by mixing 4.17 mL of Clorox bleach and water up to 100 mL total volume.
Tablet test Solution (Example 21: 2 tablets of Example 6 were dissolved in one gallon (3.8 L) of deionized water. The total tablet weight was 5.13 grams. The pH of the resulting solution was 5.2.
Reaction tubes: 5 mL of each test solution was aliquoted into 25×150 mm test culture tubes, capped and labeled according to Table 10. 9 mL of D/E (Dey/Engley) Neutralizing Broth (available from Becton Dickinson, Billerica, Mass.) was added to each of 28 test tubes and the tubes were capped. Butterfield buffer blanks were arranged for dilution of neutralized samples, and Malt Extract Agar plates were numbered for spore enumerations of the diluted, neutralized samples. With a graduated pipette, 0.5 mL of spore inoculum (approx. 10^6 condia/mL) was added to the first tube of test solution and gently shaken. After 5 and 15 minute exposures to the respective test solutions, samples were gently shaken and 1 mL samples were removed from each reaction mixture (spore-test solution) using an Eppendorf pipette and placed in 9 mL D/E (Dey/Engley) Neutralizing Broth. The inoculum was further diluted to approximately 10^4 condia/mL. Two more reaction tubes (water and OXONE-chlorite) and four Dey/Engley neutralization tubes were prepared to evaluate the efficacy of the tablet solution versus a final inoculum density of 10^3 condia/mL in the reaction tube. Samples were reacted for 15 minutes only. Dilutions of neutralized samples were prepared. Two 100 μL aliquots of all samples in D/E (Dey/Engley) Neutralizing Broth were plated on Malt Extract Agar and incubated at 25 °C until the appearance of colonies. Plates were counted after colonies appeared, roughly 4 days after incubation. Several dilutions of the inoculum spore suspensions were also plated on Malt Extract Agar to obtain an accurate count of viable spores used as inoculum. The samples were incubated at 25° C. and counted after the appearance of colonies, after about 4 days of incubation.
Buffer control data was taken after 15 minutes. CLOROX control data was taken after 5 minutes of treatment.

[5] = 30 sec exposure, 1,008 ppm Oxone, 55.5 ppm Chlorite, 23.2 ppm ClO2
[6] = 30 sec exposure, 1,008 ppm Oxone, 55.5 ppm Chlorite, 23.2 ppm ClO2, low level of detection 1.0E+01
[7] = 10 min exposure, 1,008 ppm Oxone, 55.5 ppm Chlorite, 23.2 ppm ClO2
[8] = 10 min exposure, 1,008 ppm Oxone, 55.5 ppm Chlorite, 23.2 ppm ClO2, low level of detection 1.0E+01
[9] = 30 sec exposure, Example 20 = 1,008 ppm Oxone + 55.5 ppm Chlorite, controls 1,008 ppm Oxone, 55.5 ppm Chlorite, 23.2 ppm ClO2, low level of detection 1.0E+01
[10] = 5 min, 1 × 10^6 conidia/mL inoculum in reaction mix, 2 replicates average, 2 Tabs 3.8 L, OXONE 3.78 g/gallon, chlorite 0.26 g/gallon, ClO2 ~23 ppm, 4.17% CLOROX
[11] = 15 min, 1 × 10^6 conidia/mL inoculum in reaction mix, 2 replicates average, 2 Tabs 3.8 L, OXONE 3.78 g/gallon, chlorite 0.26 g/gallon, ClO2 ~23 ppm

Molecule	Δt (log difference test and control densities) [2, 5] [log]	CFU/mL [2, 6] [CFU/mL]	Δt (log difference test and control densities) [2, 7] [log]	CFU/mL [2, 8] [CFU/mL]	Δt (log difference test and control densities) [3, 5] [log]	CFU/mL [3, 9] [CFU/mL]	Δt (log difference test and control densities) [3, 7] [log]	CFU/mL [3, 8] [CFU/mL]	Surviving bioburden counts (germinating spores - conidia/mL) [4, 10] [conidia/mL]	Surviving bioburden counts (germinating spores - conidia/mL) [4, 11] [conidia/mL]	further results
sodium chlorite	−0.1	1.17E+06	0.0	1.21E+06	0.0	1.23E+06	0.1	1.20E+06	4.25E+05	6.25E+05	Δt (log difference test and control densities) [1, 5]: −0.3 log; CFU/mL [1, 6]: 3.09E+06 CFU/mL; Δt (log difference test and control densities) [1, 7]: 0.2 log; CFU/mL [1, 8]: 1.27E+06 CFU/mL; reduction of the fungal bioburden (words) ([4]; listed as chlorite): not able to reduce the bioburden; reduction of the fungal bioburden (words) ([4]; listed as sodium chlorite): ineffective in reducing the fungal bioburden
[O][Cl+][O-] [ClO2, chlorine dioxide]	–	–	–	–	–	–	–	–	–	–	CFU/mL [1]: 1.00E+01 CFU/mL; Δt (log difference test and control densities) [1]: 5.1 log and 5.3 log; CFU/mL [2]: 1.00E+01 CFU/mL; Δt (log difference test and control densities) [2]: 5 log and 5.0 log and 5.1 log; CFU/mL [3]: 1.00E+01 CFU/mL; Δt (log difference test and control densities) [3]: 5.1 log and 5.2 log; Surviving bioburden counts (germinating spores - conidia/mL) [4]: 0.00E+00 conidia/mL; log A. fumigatus spores killed [4]: 5 log
triple salt of potassium monopersulfate, potassium hydrogen sulfate and potassium sulfate [Oxone]	0.0	9.50E+05	5.1	1.00E+01	0.0	1.52E+06	0.4	6.15E+05	3.45E+05	5.70E+05	reduction of the fungal bioburden (words) [4]: not able to reduce the bioburden; also recorded: ineffective in reducing the fungal bioburden
